Assay results reported in article PMC10619691, “Effect of cyclic substituents on the anti-cancer activity and DNA interaction of ruthenium(II) bis-phenanthroline dipyridoquinoline” (Frontiers in Molecular Biosciences, 2023).

How the values were obtained:
[1] = test system: A280-CP70 cisplatin-resistant ovarian cancer; assay: sulphorhodamine B (SRB) cytotoxicity assay; format: cell-based, human; settings: SRB assay, 72 h incubation; mean ± SEM
Method: (§1) The cytotoxicity profile of the ruthenium complexes […]-572, and POW-12A was assessed in various cancer cell lines, namely, human cervical cancer HeLa, prostate cancer cell line DU145, breast cancer cell line MDAMB231MB231, ovarian cancer cell line A2780, and cisplatin-resistant ovarian cancer cell line A2780-CP70, using the preferred screen of the National Cancer Institute, the sulphorhodamine (SRB) dye assay, and the trypan blue cell viability assay ([Skehan et al., 1990]; [Houghton et al., 2007]; [Strober, 2001]). To determine their selective toxicity profile, these complexes were also tested in a normal prostate cell line (PTN1A). From the similarity in chemical structures of the compounds, we deduced that a structure-activity relationship study will help elucidate key properties involved in the cytotoxic activity of this class of metal complexes. The sulphorhodamine B (SRB) assay was used to evaluate the cytotoxicity of each cancer line after treating them with the metal complexes in line with the previously established protocol ([Skehan et al., 1990]). A cell density of 3 × 10^4 cells/mL was treated with various concentrations (3, 10, 30, 50, and 100 μM) of each ruthenium complex by 1:200 dilutions of stock solutions (in DMSO) in culture media, using DMSO as a control. Then, 100 μL of the cell-drug suspension was added to the respective wells of a 96-well plate and incubated at 37°C for 72 h in a CO2-containing incubator. Following this, the cells were fixed using 25 ul of Carnoy's solution and left in the fridge (4°C) for 1 h. The plates were then rinsed with running water and tapped on paper to remove dead cells. The cells were then stained with 100 μL of sulphorhodamine B dye and left for 30 min, after which the dye was washed off using 1% acetic acid, and the plate was left to dry in the oven (60°C). The stained cells were then treated with 100 μL of Tris base (10 mM, pH 10) to solubilize the dye stain. Finally, the plates were analyzed using an Omega plate reader. Each assay was conducted in triplicate. % Cell response=Average of treated cells / Average of control cells x 100.

DU145 prostate cancer = assay: sulphorhodamine B (SRB) cytotoxicity assay; format: cell-based, human; settings: 72 h incubation, mean ± SEM
Method: as §1

PNT1A normal prostate = assay: sulphorhodamine B (SRB) cytotoxicity assay; format: cell-based, human; settings: for IC50: SRB assay, 72 h incubation, mean ± SEM
Method: as §1

A2780 ovarian cancer = assay: sulphorhodamine B (SRB) cytotoxicity assay; format: cell-based, human; settings: for IC50: SRB assay, 72 h incubation, mean ± SEM
Method: as §1

HeLa cervical cancer = assay: sulphorhodamine B (SRB) cytotoxicity assay; format: cell-based, human; settings: 72 h incubation, mean ± SEM
Method: as §1

MDA-MB-231 (TNBC) = assay: sulphorhodamine B (SRB) cytotoxicity assay; format: cell-based, human; settings: 72 h incubation, mean ± SEM
Method: as §1

[2] = test system: RF I φX174 supercoiled circular DNA; assay: supercoiled DNA unwinding by atomic force microscopy; format: binding; settings: AFM; P/D = 14 for POW-12A and VNK-572, P/D = 5 for VNK-754
Method: FIGURE 7 AFM height images RF I φX174 on a magnesium-soaked mica surface over an area of 2 µm. Samples with the ruthenium complex had solution mixing ratios of P/D = 14 for POW-12A and VNK-572; and of P/D = 5 VNK-754.
Samples for atomic force microscopy (AFM) were prepared on mica crystals cut into squares of approximately 1 cm^2. These squares were stuck with double-sided tape to a 15-mm diameter metal disc. Before sample preparation, Cellotape was used to remove the top layer of the mica crystal, giving a freshly cleaved surface layer on which the sample is to be deposited. Mica was soaked in a 0.1 M solution of MgCl2 for 5 min and blown dry, and Mg^2+ was used to help DNA (negatively charged) adhere to the negatively charged surface of the mica. For solutions containing DNA and POW-12A or VNK-572, a P/D value of 14 was used. For the solution containing DNA and VNK-754, a P/D value of 5 was used. Then, 2 μL of the solution was pipetted onto the mica surface and left for 10 min until the solvent had evaporated, leaving the DNA adhered to the surface. To remove excess salt, each sample was washed three times with 10 µL nanopure water, drying with nitrogen after each wash. AFM was conducted using a Bruker Multi-mode 2 atomic force microscope operated with a NanoScope V controller. ScanAsyst-AIR AFM tips were purchased from Bruker. Scans were run in tapping mode using ScanAsyst, measuring height, peak force error, and phase. The spring constant was adjusted to the spring constant of the tip, which is 0.4 N m^−1 for ScanAsyst-AIR tips; feedback parameters were set automatically by ScanAsyst Auto. Scans were run over 2 μm^2 areas with 512 lines. Images were prepared using NanoScope analysis software. Raw data were processed using first-order flattening and third-order plane fitting. If the background required smoothening due to large molecules on the surface, first-order flattening with a threshold of Z < 0.05 nm was used to improve the appearance of the background. […]

CT-DNA = assay: viscometry of DNA with bound complex; format: binding, calf; settings: 25°C
From the text: This reduction reflects increased flexibility of the DNA due to electrostatic and steric factors, which is consistent with the LD results for POW-12A but can also occur if the DNA becomes kinked or bent upon binding a small molecule.
An uncalibrated Cannon-Manning extra-low charge semi-micro viscometer (size 75) was used to measure the relative intrinsic viscosity of dilute DNA solutions, according to the manufacturer’s instructions (Cannon Instrument Company) and as described previously ([MoradpourHafshejani et al., 2013]). The viscometer was immersed in a water bath thermostated at 25°C. The DNA concentration and viscometer volume ([…]) were kept constant for a series of added dye concentrations. The flow time for water was ∼177 s, and that for DNA solutions was >245 s. Measurements were carried out in triplicate and provided standard deviations of <±1 s. The flow times are related to the relative intrinsic viscosity according to Eq. 1, where [η] is the intrinsic viscosity in the presence of dye and [η]0 is the intrinsic viscosity of free DNA. t0, td, and tx represent the flow times for buffer only, naked DNA, and dye-bound DNA, respectively. […] If the persistence length is reduced or the DNA is bent (dynamically or statically), the slope will be lowered. tx−tt/td−tt3=η/η03=L/L0=1+αr. (1)

SMILES | IC50 [1] [µM] | IC50 (DU145 prostate cancer) [µM] | IC50 (PNT1A normal prostate) [µM] | IC50 (A2780 ovarian cancer) [µM] | IC50 (HeLa cervical cancer) [µM] | IC50 (MDA-MB-231 (TNBC)) [µM] | unwinding of supercoiled circular DNA [2] | effect on DNA viscosity / length (CT-DNA) | fold difference in sensitivity between normal prostate cells (PNT1A) and prostate cancer cell line DU145 (PNT1A normal prostate; from SRB IC50 values) | fold difference between the anti-cancer activities of VNK-754 and VNK-572 (A2780 ovarian cancer; more susceptible cancer cell lines (A2780 and DU145))
F[P-](F)(F)(F)(F)F.F[P-](F)(F)(F)(F)F.[Ru+2].c1cnc2c(c1)c1ncc3c(c1c1cccnc12)CCC3.c1cnc2c(c1)ccc1cccnc12.c1cnc2c(c1)ccc1cccnc12 [POW-12A] | 35 ± 3.47 | 35 ± 6.93 | > 100 | 12 ± 1.73 | 63 ± 6.35 | > 100 | unwound | reduces the viscosity of DNA | – | –
F[P-](F)(F)(F)(F)F.F[P-](F)(F)(F)(F)F.[Ru+2].c1cnc2c(c1)c1ncc3c(c1c1cccnc12)CCCC3.c1cnc2c(c1)ccc1cccnc12.c1cnc2c(c1)ccc1cccnc12 [VNK-572] | 15 ± 2.89 | 19 ± 2.31 | > 100 | 10 ± 4.04 | 52 ± 6.35 | > 100 | unwound | elongates DNA | more than five-fold | seven-fold
